The results in this text go back to patent US7470793B2, “Thiazol-(bi)cycloalkyl-carboxanilides” (priority 2002, dated 2008).

The subject of one data set is Alternaria solani. The data set can be described thus: Alternaria test (tomato)/protective. The following applies: tomato plants, protective spray, application rate 750 g/ha, evaluation 7 days after inoculation. The data set is classed as in vivo. The procedure: Alternaria Test (Tomato)/Protective
• Solvent: 49 parts by weight of N,N-dimethylformamide • Emulsifier: 1 part by weight of alkylaryl polyglycol ether
(§1) To produce a suitable preparation of active compound, 1 part by weight of active compound is mixed with the stated amounts of solvent and emulsifier, and the concentrate is diluted with water to the desired concentration.
To test for protective activity, young tomato plants are sprayed with the preparation of active compound at the stated application rate. 1 day after the treatment, the plants are inoculated with a spore suspension of Alternaria solani. The plants then remain at 100% relative atmospheric humidity and 20° C. for 24 hours. Subsequently, the plants remain at 96% relative atmospheric humidity and a temperature of 20° C.
(§2) Evaluation is carried out 7 days after the inoculation. 0% means an efficacy which corresponds to that of the control, whereas an efficacy of 100% means that no infection is observed.
In the case of `Cc1nc(C(F)F)c(C(=O)Nc2ccc(Br)cc2C2CC3CCC2C3)s1` (stereo not shown) [Example 14], the Efficacy in % was 95%.
Still for that read-out and setting: the same measure for `Cc1nc(C(F)F)c(C(=O)Nc2ccccc2C2CCC[C@@H](C)C2)s1` (stereo partly shown) [Example 18]: 100%; for `CC(=O)N(C(=O)c1sc(C)nc1C(F)F)c1ccccc1C1CC2CCC1C2` (stereo not shown) [Example 21]: 100%.

In a further data set the test system is Venturia inaequalis. The data set can be described thus: Venturia test (apple)/protective. The class given is in vivo. The note with it: apple plants, protective spray, application rate 100 g/ha, evaluation 10 days after inoculation. The method, then:
Venturia Test (Apple)/Protective
• Solvents: 2.5 parts by weight of acetone • 24.5 parts by weight of dimethylacetamide • Emulsifier: 1.0 part by weight of alkylaryl polyglycol ether
(§3) To produce a suitable preparation of active compound, 1 part by weight of active compound is mixed with the stated amounts of solvents and emulsifier, and the concentrate is diluted with water to the desired concentration.
To test for protective activity, young plants are sprayed with the preparation of active compound at the stated application rate. After the spray coating has dried on, the plants are inoculated with an aqueous conidia suspension of the apple scab pathogen Venturia inaequalis and then remain in an incubation cabinet at about 20° C. and 100% relative atmospheric humidity for 1 day.
The plants are then placed in a greenhouse at about 21° C. and a relative atmospheric humidity of about 90%.
(§4) Evaluation is carried out 10 days after the inoculation. 0% means an efficacy which corresponds to that of the control, whereas an efficacy of 100% means that no infection is observed.
The molecule `Cc1nc(C(F)F)c(C(=O)Nc2ccccc2C2CCCCC2)s1` [Example 1, N-(2-cyclohexylphenyl)-4-(difluoromethyl)-2-methyl-1,3-thiazole-5-carboxamide] returned an Efficacy in % of 100%.
Still for that read-out and setting: the same measure for `Cc1nc(C(F)F)c(C(=O)Nc2ccccc2C2CC3CCC2C3)s1` (stereo not shown) [Example 2, N-(2-bicyclo[2.2.1]hept-2-ylphenyl)-4-(difluoromethyl)-2-methyl-1,3-thiazole-5-carboxamide]: 100%; for `Cc1nc(C(F)F)c(C(=O)Nc2ccc(F)cc2C2CCCC2)s1` [Example 6]: 99%.
`Cc1nc(C(F)F)c(C(=O)Nc2ccccc2C2CCCCCCC2)s1` [Example 8] yielded an Efficacy in % of 100%.
On the same count and under the same terms, the same measure for `Cc1nc(C(F)F)c(C(=O)Nc2ccc(Br)cc2C2CC3CCC2C3)s1` (stereo not shown) [Example 14]: 100%; for `Cc1nc(C(F)F)c(C(=O)Nc2ccccc2C2CCC[C@@H](C)C2)s1` (stereo partly shown) [Example 18]: 100%.
Same read-out and setting: to `CC(=O)N(C(=O)c1sc(C)nc1C(F)F)c1ccccc1C1CC2CCC1C2` (stereo not shown) [Example 21] belongs 96%.

Another data set concerns Puccinia recondita. The data set can be described thus: Puccinia test (wheat)/protective. The note with it: wheat plants, protective spray, application rate 500 g/ha, evaluation 10 days after inoculation. The class given is in vivo. The procedure:
Puccinia Test (Wheat)/Protective
• Solvent: 25 parts by weight of N,N-dimethylacetamide • Emulsifier: 0.6 part by weight of alkylaryl polyglycol ether
as §1
To test for protective activity, young plants are sprayed with the preparation of active compound at the stated application rate. After the spray coating has dried on, the plants are sprayed with a conidia suspension of Puccinia recondita. The plants remain in an incubation cabin at about 20° C. and 100% relative atmospheric humidity for 48 hours.
The plants are then placed in a greenhouse at a temperature of about 20° C. and a relative atmospheric humidity of 80% to promote the development of rust pustules.
as §4
Molecule `Cc1nc(C(F)F)c(C(=O)Nc2ccccc2C2CCCCC2)s1` [Example 1, N-(2-cyclohexylphenyl)-4-(difluoromethyl)-2-methyl-1,3-thiazole-5-carboxamide] yielded an Efficacy in % of 100%.
Same read-out and setting: the same measure for `Cc1nc(C(F)F)c(C(=O)Nc2ccccc2C2CC3CCC2C3)s1` (stereo not shown) [Example 2, N-(2-bicyclo[2.2.1]hept-2-ylphenyl)-4-(difluoromethyl)-2-methyl-1,3-thiazole-5-carboxamide]: 100%; for `Cc1nc(C(F)F)c(C(=O)Nc2ccccc2C2CCCCCCC2)s1` [Example 8]: 100%.
Same read-out and setting: the same measure for `CC(=O)N(C(=O)c1sc(C)nc1C(F)F)c1ccccc1C1CCCCC1` [Example 22]: 93%.

Test system in a further data set: not listed separately
Put plainly: logP determination by HPLC on reversed-phase column (EEC directive 79/831 Annex V.A8). The note with it: reversed-phase C18 HPLC column, pH 2.3, C 18 reversed-phase, 43° C., 0.1% aqueous phosphoric acid/acetonitrile gradient. The data set is classed as physicochemical. The procedure: The logP values given in the Preparation Examples were determined in accordance with EEC directive 79/831 Annex V.A8 by HPLC (High Performance Liquid Chromatography) on a reversed-phase column (C 18). Temperature: 43° C.
Mobile phases for the determination in the acidic range: 0.1% aqueous phosphoric acid, acetonitrile; linear gradient from 10% acetonitrile to 90% acetonitrile.
Calibration was carried out using unbranched alkan-2-ones (having 3 to 16 carbon atoms) with known logP values (determination of the logP values by the retention times using linear interpolation between two successive alkanones).
Take `Cc1nc(C(F)F)c(C(=O)Nc2ccccc2C2CCCCC2)s1` [Example 1, N-(2-cyclohexylphenyl)-4-(difluoromethyl)-2-methyl-1,3-thiazole-5-carboxamide]: the chromatographic logP (usually a lipophilicity value derived from retention on a column) turned out to be 3.5.
On the same count and under the same terms, the same measure for `Cc1nc(C(F)F)c(C(=O)Nc2ccccc2C2CC3CCC2C3)s1` (stereo not shown) [Example 2, N-(2-bicyclo[2.2.1]hept-2-ylphenyl)-4-(difluoromethyl)-2-methyl-1,3-thiazole-5-carboxamide]: 3.63.
Same read-out and setting: the same measure for `Cc1nc(C(F)F)c(C(=O)Nc2ccc(F)cc2C2CCCC2)s1` [Example 6]: 3.24; for `Cc1nc(C(F)F)c(C(=O)Nc2ccccc2C2CCCCCCC2)s1` [Example 8]: 4.06; for `Cc1nc(C(F)F)c(C(=O)Nc2ccc(Br)cc2C2CC3CCC2C3)s1` (stereo not shown) [Example 14]: 4.27.
On the same count and under the same terms, the same measure for `Cc1nc(C(F)F)c(C(=O)Nc2ccccc2C2CCC[C@@H](C)C2)s1` (stereo partly shown) [Example 18]: 3.88; for `Cc1nc(C(F)F)c(C(=O)N(C)c2ccccc2C2CC3CCC2C3)s1` (stereo not shown) [Example 19]: 3.96.
In turn, `Cc1nc(C(F)F)c(C(=O)N(C)c2ccccc2C2CCCCC2)s1` [Example 20] yielded a chromatographic logP of 3.85.
Same read-out and setting: to `CC(=O)N(C(=O)c1sc(C)nc1C(F)F)c1ccccc1C1CC2CCC1C2` (stereo not shown) [Example 21] belongs 3.95.
Still for that read-out and setting: to `CC(=O)N(C(=O)c1sc(C)nc1C(F)F)c1ccccc1C1CCCCC1` [Example 22] belongs 3.86.

The next data set deals with Sphaerotheca fuliginea. Put plainly: Sphaerotheca test (cucumber)/protective. The class given is in vivo. The following applies: Podosphaera fuliginea, 168 h, read-out: Efficacy in %. The procedure: Sphaerotheca Test (Cucumber)/Protective
• Solvents: 24.5 parts by weight of acetone • 24.5 parts by weight of N,N-dimethylacetamide • Emulsifier: 1 part by weight of alkylaryl polyglycol ether
as §3
To test for protective activity, young cucumber plants are sprayed with the preparation of active compound at the stated application rate. After the spray coating has dried on, the plants are inoculated with an aqueous spore suspension of Sphaerotheca fuliginea. The plants are then placed in a greenhouse at about 23° C. and a relative atmospheric humidity of about 70%.
as §2
In the case of `Cc1nc(C(F)F)c(C(=O)Nc2ccccc2C2CC3CCC2C3)s1` (stereo not shown) [Example 2, N-(2-bicyclo[2.2.1]hept-2-ylphenyl)-4-(difluoromethyl)-2-methyl-1,3-thiazole-5-carboxamide], the pest or weed control at 100 g/ha worked out at 100%.

Still in this data set, the particulars now being: Podosphaera fuliginea, 168 h; cucumber plants, protective spray, application rate 100 g/ha, evaluation 7 days after inoculation; read-out: Efficacy in %.
As to `Cc1nc(C(F)F)c(C(=O)Nc2ccccc2C2CCCCC2)s1` [Example 1, N-(2-cyclohexylphenyl)-4-(difluoromethyl)-2-methyl-1,3-thiazole-5-carboxamide], the pest or weed control at 100 g/ha was 89%.
Same read-out and setting: to `Cc1nc(C(F)F)c(C(=O)Nc2ccc(F)cc2C2CCCC2)s1` [Example 6] belongs 88%.
Same read-out and setting: to `Cc1nc(C(F)F)c(C(=O)Nc2ccccc2C2CCCCCCC2)s1` [Example 8] belongs 93%; to `Cc1nc(C(F)F)c(C(=O)Nc2ccc(Br)cc2C2CC3CCC2C3)s1` (stereo not shown) [Example 14], 100%.
On the same count and under the same terms, to `Cc1nc(C(F)F)c(C(=O)Nc2ccccc2C2CCC[C@@H](C)C2)s1` (stereo partly shown) [Example 18] belongs 100%; to `Cc1nc(C(F)F)c(C(=O)N(C)c2ccccc2C2CC3CCC2C3)s1` (stereo not shown) [Example 19], 98%; to `Cc1nc(C(F)F)c(C(=O)N(C)c2ccccc2C2CCCCC2)s1` [Example 20], 100%.
`CC(=O)N(C(=O)c1sc(C)nc1C(F)F)c1ccccc1C1CC2CCC1C2` (stereo not shown) [Example 21]: the pest or weed control at 100 g/ha was determined as 98%.
Same read-out and setting: to `CC(=O)N(C(=O)c1sc(C)nc1C(F)F)c1ccccc1C1CCCCC1` [Example 22] belongs 96%.
